# PMC4364341, “NBD delivery improves the disease phenotype of the golden retriever model of Duchenne muscular dystrophy” (Skeletal Muscle, 2014)
# Key:
# GRMD dogs [1] = test: Tibiotarsal joint (TTJ) tetanic force/torque, GRMD dogs; format: in vivo, dog; conditions: for Absolute Tetanic Extension Force / Absolute Tetanic Extension Torque / Absolute Tetanic Flexion Force / Absolute Tetanic Flexion Torque / Body-mass Corrected Tetanic Extension Force / Body-mass Corrected Tetanic Extension Torque / Body-mass Corrected Tetanic Flexion Force / Body-mass Corrected Tetanic Flexion Torque: n = 6
# Method: The GRMD disease phenotype was initially determined based on elevation of serum creatine kinase and confirmed by PCR. Two cohorts of GRMD dogs were treated with a 4-month course of NBD (10 mg/kg, IV) (American Peptides; Sunnyvale, CA, USA), beginning at approximately 2 months of age. The first cohort included four GRMD (Wasabi, Pepper, Hiver, and Automne) and two wild type (Cumin and Fennel) dogs, while the second cohort included two GRMD (Peach and Kiwi) and one wild type (Mango) dog. Results were compared with those collected from 10 untreated GRMD dogs (Cilantro, Lyle, Napoleon, Summer, Jane, Cosmo, Dorothy, Toto, Hickory, and Zeke) and eight age-matched wild type littermates (Oregano, Parsley, Kip, Pedro, Pinkman, Saul, Heisenberg, and Tuco) through a parallel, but separate, natural history study in which functional, magnetic resonance imaging (MRI), and pathologic data were collected.
# For all tests, dogs were anesthetized (premeds: acepromazine maleate (0.02 mg/kg), butorphanol (0.4 mg/kg), and atropine sulfate (0.04 mg/kg); masked/intubated; and maintained with sevoflurane). To assess force and eccentric contraction decrement (below), dogs were positioned in dorsal recumbence in a custom-made stereotactic frame that aligns the tibia parallel to the table at a 90° angle to the femur. The angle at which maximal joint torque is generated during isometric contractions has been termed the optimal joint angle, which is analogous to the optimal fiber length (Lo) for individual muscle force measurements. Our choice of 90° as the optimal joint angle was based on studies in which torque was measured over a range of angles. The length-tension relationship was not shifted for normal versus GRMD dogs. TTJ flexion and extension torque (N-m) was measured by a rapid-response servomotor/force transducer (model 310B LR, Aurora Scientific, Inc., Aurora, ON, Canada) controlled by a PC using custom LabView software. Either the common peroneal (TTJ flexion) or tibial (TTJ extension) nerve was stimulated using paired stimulating and reference 27-gauge monopolar electrodes placed just distal to the fibular head (common peroneal nerve) or within the gastrocnemius muscles (tibial nerve), respectively. As a result, the paw of the distal pelvic limb pulled (flexion) or pushed against (extension) a pedal affixed to a transducer, providing a measure of isometric torque. Supramaximal 150 V, 100 μs pulses were applied (Model S48 Solid State Square Wave Stimulator; Grass Instruments, Quincy, MA, USA) in a tetanic run of 250 pulses (50/s). The site of contact for the paw with the lever (moment arm) was estimated to be 75% of the distance between the point of the hock and the distal digit. Torque (Newton-meters) was divided by the moment arm (meters) to convert to force (Newtons).
# GRMD dogs [2] = test: Histopathologic assessment of skeletal muscles, GRMD dogs; format: in vivo, dog
# Method: For mice muscles, histopathological assessment was performed as earlier described. For canine samples, CS, lateral gastrocnemius, vastus lateralis, and diaphragm muscles were assessed at the end of the 4-month treatment period when dogs were necropsied. Muscle samples were snap frozen in isopentane cooled in liquid nitrogen, and stored at -80°C. A total of 16 dogs (3 wild type, 2 wild type + NBD, 5 untreated GRMD, and 6 GRMD + NBD) were assessed. Serial frozen sections (n = 10 per dog) from each muscle were processed. For each stain, quantitation was performed on three 10 μm sections of each muscle. To determine the degree of inflammation, cells that stained with a canine specific macrophage PM2K antibody were quantitated. Muscle damage was assessed by scoring for IgG-positive myofibers using immunofluorescence, and necrotic foci by hematoxylin and eosin (H&E) staining. Centrally located nuclei (CLN) were quantified on H&E sections to determine the degree of regeneration. Staining was quantitated on an Olympus BX51 microscope with Microsuite Five software (Olympus Soft Imaging Solutions GmbH, Center Valley, PA, USA). A composite score for all four muscles, reflecting muscle injury, inflammation, and regeneration, was determined.
# [3] = dog, in vivo, iv
# Excerpt: Having established a treatment regimen that provides efficacy of NBD in mice, we next asked whether such therapy could be applied to a larger animal model of DMD. […] In addition, normal hematology (white blood cell, red blood cell, platelet counts) and serum chemistry (ALT, AST, GGT, bilirubin, creatinine, potassium, creatine kinase) profiles were noted following a single IV injection of NBD in normal dogs (data not shown). Based on our collective data, a preclinical trial in GRMD dogs was initiated with four primary outcomes: skeletal muscle function, MRI of pelvic limb muscles, histopathologic features of skeletal muscles, and safety. Juvenile GRMD (n = 6) and wild type (n = 3) dogs at 2 months of age were treated for 4 months by IV infusions, 3× weekly, at 10 mg/Kg. Results were compared with those collected from untreated GRMD and wild type dogs through a separate, natural history study.
# wild type and GRMD dogs = conditions: dog, in vivo
# Excerpt: Necropsies were completed on all six of the NBD-treated GRMD dogs and two of the wild type dogs. Sections of kidney, liver, spleen, lung, heart (right and left ventricle), popliteal lymph node, adrenal gland, thyroid, duodenum, large intestine, pancreas, stomach, and cerebrum were collected and fixed in 10% buffered formalin. Tissues were sent to Histo-Scientific Research Laboratories in Frederick, MD, USA, a contract research laboratory where they were processed, embedded in paraffin, sectioned, and stained with H&E. An American College of Veterinary Pathology-certified pathologist evaluated slides.
# [4] = NBD group, age 2 months (start of treatment)
# [5] = age 6 months, NBD 10 mg/kg IV 3x weekly for 4 months
# [6] = Average rescue of 4 muscles, NBD 10 mg/kg IV 3x weekly for 4 months
# [7] = Cranial sartorius, NBD 10 mg/kg IV 3x weekly for 4 months, p = 0.14
# [8] = Diaphragm, NBD 10 mg/kg IV 3x weekly for 4 months
# [9] = Lateral gastroc, NBD 10 mg/kg IV 3x weekly for 4 months
# [10] = Vastus lateralis, NBD 10 mg/kg IV 3x weekly for 4 months
sequence,measurement,setting,value
"TALDWSWLQTE [NBD, NBD peptide (…) fused to an Antennapedia protein transduction domain]",Absolute Tetanic Extension Force,GRMD dogs [1]; [4],7.50 ± 2.09 N
same,Absolute Tetanic Extension Torque,GRMD dogs [1]; [4],0.62 ± 0.16 Nm
same,Absolute Tetanic Flexion Force,GRMD dogs [1]; [4],2.05 ± 0.58 N
same,Absolute Tetanic Flexion Torque,GRMD dogs [1]; [4],0.17 ± 0.06 Nm
same,Body-mass Corrected Tetanic Extension Force,GRMD dogs [1]; [4],2.11 ± 0.70 N/kg
same,Body-mass Corrected Tetanic Extension Torque,GRMD dogs [1]; [4],0.21 ± 0.07 Nm/kg
same,Body-mass Corrected Tetanic Flexion Force,GRMD dogs [1]; [4],0.57 ± 0.15 N/kg
same,Body-mass Corrected Tetanic Flexion Torque,GRMD dogs [1]; [4],0.05 ± 0.01 Nm/kg
same,Absolute Tetanic Extension Force,GRMD dogs [1]; [5],"34.30 ± 9.65^1**,2 N"
same,Absolute Tetanic Extension Torque,GRMD dogs [1]; [5],"4.55 ± 1.49^1**,2 Nm"
same,Absolute Tetanic Flexion Force,GRMD dogs [1]; [5],6.79 ± 1.13^1 N
same,Absolute Tetanic Flexion Torque,GRMD dogs [1]; [5],0.89 ± 0.18^1 Nm
same,Body-mass Corrected Tetanic Extension Force,GRMD dogs [1]; [5],2.70 ± 0.65^2 N/kg
same,Body-mass Corrected Tetanic Extension Torque,GRMD dogs [1]; [5],"0.36 ± 0.08^1*,2 Nm/kg"
same,Body-mass Corrected Tetanic Flexion Force,GRMD dogs [1]; [5],0.55 ± 0.13 N/kg
same,Body-mass Corrected Tetanic Flexion Torque,GRMD dogs [1]; [5],0.07 ± 0.02^1 Nm/kg
same,Increase in extension force vs untreated GRMD dogs,"GRMD dogs [1]; pelvic limb, body-mass corrected, NBD 10 mg/kg IV 3x weekly for 4 months, P = 0.038",73%
same,"Inflammation (PM2K-positive macrophages), percent difference GRMD vs GRMD + NBD",GRMD dogs [2]; [6],35.5%
same,"Necrosis (IgG-positive myofibers), percent difference GRMD vs GRMD + NBD",GRMD dogs [2]; [6],30.3%
same,"Regeneration (centrally located nuclei), percent difference GRMD vs GRMD + NBD",GRMD dogs [2]; [6],40.8%
same,"Inflammation (PM2K-positive macrophages), percent difference GRMD vs GRMD + NBD","GRMD dogs [2]; Cranial sartorius, NBD 10 mg/kg IV 3x weekly for 4 months, p < 0.05",34%
same,"Necrosis (Foci, H&E), percent difference GRMD vs GRMD + NBD",GRMD dogs [2]; [7],25%
same,"Necrosis (IgG-positive myofibers), percent difference GRMD vs GRMD + NBD",GRMD dogs [2]; [7],22%
same,"Regeneration (centrally located nuclei), percent difference GRMD vs GRMD + NBD","GRMD dogs [2]; Cranial sartorius, NBD 10 mg/kg IV 3x weekly for 4 months, reduced, p < 0.05",43%
same,"Inflammation (PM2K-positive macrophages), percent difference GRMD vs GRMD + NBD",GRMD dogs [2]; [8],37%
same,"Necrosis (Foci, H&E), percent difference GRMD vs GRMD + NBD",GRMD dogs [2]; [8],37%
same,"Necrosis (IgG-positive myofibers), percent difference GRMD vs GRMD + NBD",GRMD dogs [2]; [8],32%
same,"Regeneration (centrally located nuclei), percent difference GRMD vs GRMD + NBD",GRMD dogs [2]; [8],41%
same,Final Histological Score of Improvement (composite of all four muscles),"GRMD dogs [2]; GRMD + NBD vs untreated GRMD, NBD 10 mg/kg IV 3x weekly for 4 months",35.5%
same,Reduction of CS myofiber size vs untreated GRMD muscles,"GRMD dogs [2]; GRMD + NBD, n = 6, 1800 fibers, P <0.05",46%
same,"Inflammation (PM2K-positive macrophages), percent difference GRMD vs GRMD + NBD",GRMD dogs [2]; [9],40%
same,"Necrosis (Foci, H&E), percent difference GRMD vs GRMD + NBD",GRMD dogs [2]; [9],34%
same,"Regeneration (centrally located nuclei), percent difference GRMD vs GRMD + NBD",GRMD dogs [2]; [9],35%
same,"Inflammation (PM2K-positive macrophages), percent difference GRMD vs GRMD + NBD",GRMD dogs [2]; [10],31%
same,"Necrosis (IgG-positive myofibers), percent difference GRMD vs GRMD + NBD",GRMD dogs [2]; [10],32%
same,"Regeneration (centrally located nuclei), percent difference GRMD vs GRMD + NBD",GRMD dogs [2]; [10],44%
same,Hematology and serum chemistry profiles,[3],normal
same,Necropsy findings,wild type and GRMD dogs,histopathological changes related to NBD
